Reference: US9192678B2, “Modified hyaluronic acid polymer compositions and related methods” (priority 2009, dated 2015)

Tested on: medial femoral condyle cartilage of goat stifle joint
Assay: Modified Mankin score of femoral cartilage after intra-articular injection in goats (Example 34)
Format: in vivo
Method: A lightly crosslinked hydrogel prepared by reaction of vinyl-sulfone-modified hyaluronic acid with PEG-dithiol (HA-VS-PEG-(SH)2), containing the corticosteroid, triamcinolone acetonide, was injected into the intraarticular space of the stifle joint of female goats. Morphological, synovial fluid and histological examinations were conducted to evaluate local and systemic effects of such injections. Details of the study are provided below.
All test materials were stored at room temperature prior to use. For each Test or Control Material, a 1.5 ml dosage was prepared for each individual intra-articular injection.
A standard technique was used to inject each stifle joint, A 2-inch by 21 gauge sized sterile needle was introduced into the intra-articular space via an anteromedial approach. The lateral intercondylar notch wall of the medial femoral condyle was felt and the needle backed slightly off. 1.5 ml of the appropriate Test Material was injected into the right joint. The injection needle was removed and pressure was maintained on the injection site. The injected stifle joint was then cycled 20-times through a full range of motion. Immediately following this, the left stifle joint was cleansed with chlorohexidine scrub alternating with 70% isopropyl alcohol three times and painted with iodine solution and 1.5 ml of the Control Material was injected into the left stifle joint in a similar manner as described above for the right stifle. The injection needle was removed and pressure maintained on the injection site. The injected stifle joint was then cycled 20-times through a full range of motion.
Necropsy: Animals were humanely sacrificed at either 14 days or 28 days day post initial injection with an intravenous injection consisting of Diazepam 0.22 mg/kg and Ketamine 10 mg/kg for induction of general anesthesia. Following this, the anesthetized animals were given an IV overdose of concentrated potassium chloride (KCl) until the cardiac arrest had been verified.
Immediately after dissection and following gross joint surface evaluation a sagital section of each joint was cut through the medial femoral condyle (MFC). These sections were placed individually in 10% neutral buffered formalin. The fixed tissue was shipped by overnight carrier to Premier Laboratories for processing. The right and left MFC sections were processed using standard histological techniques and stained with hematoxylin and eosin (H&E) and Safranin-O (SAF-O) with a fast green counter stain. The slides from the MFC sections were evaluated by the Mankin Scoring System for osteoarthritis as described in Table 12.

[1] = 28 day group, animal died prematurely (3837: 24 days, 3588: 19 days on study), not included in averages

SMILES | Cells (modified Mankin) [1] | Safranin-O Stain (modified Mankin) [1] | Structure (modified Mankin) [1] | Tide Mark Integrity (modified Mankin) [1] | Total Mankin Score [1] | Cells (modified Mankin), MEAN (female, goat, in vivo, 14 days) | Safranin-O Stain (modified Mankin), MEAN (female, goat, in vivo, 14 days) | Structure (modified Mankin), MEAN (female, goat, in vivo, 14 days) | Tide Mark Integrity (modified Mankin) (female, goat, in vivo, 14 days) | Tide Mark Integrity (modified Mankin), MEAN (female, goat, in vivo, 14 days) | Total Mankin Score, MEAN (female, goat, in vivo, 14 days) | Cells (modified Mankin), MEAN (female, goat, in vivo, 28 days) | Safranin-O Stain (modified Mankin) (female, goat, in vivo, 28 days) | Safranin-O Stain (modified Mankin), MEAN (female, goat, in vivo, 28 days) | Structure (modified Mankin), MEAN (female, goat, in vivo, 28 days) | Tide Mark Integrity (modified Mankin) (female, goat, in vivo, 28 days) | Tide Mark Integrity (modified Mankin), MEAN (female, goat, in vivo, 28 days) | Total Mankin Score, MEAN (female, goat, in vivo, 28 days)
CC1(C)O[C@@H]2C[C@H]3[C@@H]4CCC5=CC(=O)C=C[C@]5(C)[C@@]4(F)[C@@H](O)C[C@]3(C)[C@]2(C(=O)CO)O1 [Triamcinolone Acetonide 8 mg/ml, triamcinolone acetonide] | 3.0 | 3.0 | 4.0 | 0.0 | 10.0 | 0.3 | 3.3 | 1.7 | 0.0 | 0.0 | 5.3 | 2.0 | 4.0 | 4.0 | 3.0 | 0.0 | 0.0 | 9.0
CC1(C)O[C@@H]2C[C@H]3[C@@H]4CCC5=CC(=O)C=C[C@]5(C)[C@@]4(F)[C@@H](O)C[C@]3(C)[C@]2(C(=O)CO)O1 [Triamcinolone Acetonide 2 mg/ml, triamcinolone acetonide] | – | – | – | – | – | 0.7 | 3.0 | 2.7 | 0.0 | 0.0 | 6.3 | 2.3 | – | 3.3 | 2.7 | 0.0 | 0.0 | 8.3
